In PubChem BioAssay (NCI):
“And” between values parts separate entries of the source, which are not always exact repeats. Equal entries are not always repeated.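 The compound was tested at five concentrations on cells cultured in 96-well plates, with a 48-hour exposure period. GI50 is the concentration that inhibits growth by half. TGI: concentration producing complete growth inhibition.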

Key:
Assay in all cases: growth of human tumour cells (NCI), 48 h
786-0 renal = system: 786-0 renal
CAKI-1 renal = system: CAKI-1 renal
DLD-1 colon = system: DLD-1 colon
DMS 114 small cell lung = system: DMS 114 small cell lung
DU-145 prostate = system: DU-145 prostate
HS 578T breast = system: HS 578T breast
KM20L2 colon = system: KM20L2 colon
MOLT-4 leukemia = system: MOLT-4 leukemia
NCI-H460 lung = system: NCI-H460 lung
UACC-62 melanoma = system: UACC-62 melanoma

Structure (SMILES) | TGI (786-0 renal) [µM] | TGI (CAKI-1 renal) | TGI (DLD-1 colon) [µM] | TGI (DMS 114 small cell lung) | TGI (DU-145 prostate) [µM] | TGI (HS 578T breast) [µM] | TGI (KM20L2 colon) | TGI (MOLT-4 leukemia) | TGI (NCI-H460 lung) [µM] | TGI (UACC-62 melanoma) [µM] | GI50 (CAKI-1 renal) [nM] | GI50 (DLD-1 colon) [µM] | GI50 (DMS 114 small cell lung) [µM] | GI50 (DU-145 prostate) [nM] | GI50 (KM20L2 colon) [µM] | GI50 (UACC-62 melanoma) [nM]
O=C(CCN1CCCCC1)N1CCc2c([nH]c3ccccc23)C1c1cccnc1 (configuration not stated) | 82.9 | > 100 µM | > 100 | > 69.7 µM | > 100 | > 100 | > 70.8 µM | > 100 µM | > 100 | 42.2 | – | – | – | – | – | –
COC1OC2COC(C)(C)OC2C(OC(C)=O)C1NC(=O)N(CCCl)N=O (configuration not stated) | > 100 | > 100 µM | > 100 | > 100 µM | – | – | > 100 µM | > 100 µM | > 100 | > 100 | – | – | – | – | – | –
CCc1nc2ccc(N=Nc3c(O)ccc4ccccc34)cc2[nH]1 | 37.7 | 40.2 µM | 57.3 | 35.1 µM | 31.2 | 48.6 | 36.9 µM | 81.1 µM | 36.8 | 35.3 | – | – | – | – | – | –
COC(=O)[C@@]12CC(C(C)C)[C@H]3CC(C(=O)C=C1OC)[C@H]32 (some centres not stated) | > 100 | > 100 µM | > 100 | > 100 µM | – | – | > 100 µM | > 100 µM | > 100 | > 100 | – | – | – | – | – | –
CN(/N=C/c1ccnc2ccccc12)c1c([N+](=O)[O-])cc([N+](=O)[O-])cc1[N+](=O)[O-] | > 100 | > 100 µM | > 100 | > 100 µM | – | – | > 100 µM | > 100 µM | > 100 | > 100 | – | – | – | – | – | –
Clc1cccc(-c2nnc(-c3nn(-c4ccccc4)c4nc5ccccc5nc34)o2)c1 | > 100 | > 100 µM | > 100 | > 100 µM | – | – | > 100 µM | > 100 µM | > 100 | > 100 | – | – | – | – | – | –
CC(C)CCCCCCCCCCCCC(=O)NCC(=O)NC1C(O)C(O)C(Nc2ncnc3nc[nH]c23)OC1C(O)CO (configuration not stated) | 0.526 | 0.0011 µM and 0.000619 µM | 3.83 | 0.0278 µM and 0.00687 µM | – | 0.446 | 0.0222 µM and 0.0138 µM | 0.153 µM and 0.43 µM | – | – | < 0.01 | 0.0104 | 0.005 | < 0.01 | 0.005 | < 0.01
O=C1c2ccccc2C2CCC1c1ccccc12 (configuration not stated) | > 100 | > 100 µM | > 100 | 57 µM | – | – | > 100 µM | 45.7 µM | > 100 | > 100 | – | – | – | – | – | –
O=C1C2C3CC(C4C5C=CC(C5)C34)C2C2C3CC(C12)C1C2C=CC(C2)C31 (configuration not stated) | > 100 | > 100 µM | > 100 | > 100 µM | – | – | > 100 µM | > 100 µM | > 100 | > 100 | – | – | – | – | – | –
Clc1cccc(C2N3CCCCC3[C@@H]3c4[nH]c5ccccc5c4CCN23)c1 (some centres not stated) | > 100 | > 100 µM | > 100 | 55.6 µM | – | – | > 100 µM | 60.5 µM | 46.1 | 30.7 | – | – | – | – | – | –
CCNC(=O)OCc1c(COC(=O)NCC)c(-c2ccc(Cl)c(Cl)c2)n2c1CCC2 | 33.5 | 14.6 µM | 72.3 | 25.4 µM | – | – | 68.3 µM | 56.3 µM | 25.7 | 23.1 | – | – | – | – | – | –
O=c1c(Cl)c(Cl)cnn1CCCl | 25.3 | 6.53 µM | 3.29 | 18.9 µM | 34 | 12.8 | 27.2 µM | 7.46 µM | 23.1 | 8.25 | – | – | – | – | – | –
Nc1ccccc1C(=O)CCC1C(=O)NC(=S)NC1=O | > 100 | > 100 µM | > 100 | > 100 µM | > 100 | > 100 | > 100 µM | > 100 µM | > 100 | > 100 | – | – | – | – | – | –
